The source made the active and inactive calls. The rule behind the calls is not given here.
Key:
[1] = Metal chelating activity assessed as compound-Fe2+ complex formation by UV-Vis absorption spectra analysis
[2] = Metal chelating activity assessed as compound-Fe3+ complex formation by UV-Vis absorption spectra analysis
[3] = system: SH-SY5Y; experiment: Anti-ferroptosis activity against RSL3-induced ferroptosis in human SH-SY5Y cells assessed as reversal of ferroptosis by measuring cell viability measured after 48 hrs by MTT assay; assay type: functional, cell-based
[4] = Metabolic stability in rat liver homogenate assessed as recovery measured after 12 hrs; assay type: ADME, tissue-based; details: read-out: Drug recovery
[5] = Plasma stability in rat plasma assessed as half life; assay type: ADME, cell-free
[6] = Plasma stability in human plasma assessed as half life; assay type: ADME, cell-free
[7] = Plasma stability in human plasma assessed as recovery measured after 12 hrs; assay type: ADME, cell-free; details: read-out: Drug recovery
[8] = Metabolic stability in rat liver homogenate assessed as half life; assay type: ADME, tissue-based
[9] = Plasma stability in rat plasma assessed as recovery measured after 12 hrs; assay type: ADME, cell-free; details: read-out: Drug recovery
[10] = system: SH-SY5Y; experiment: Prevention of RSL3-induced ferroptosis in human SH-SY5Y cells assessed as cell viability at 5 uM measured after 48 hrs by MTT assay; assay type: functional, cell-based
[11] = system: HT-1080; experiment: Anti-ferroptosis activity against RSL3-induced ferroptosis in human HT-1080 cells assessed as reversal of ferroptosis by measuring cell viability measured after 48 hrs by MTT assay; assay type: functional, cell-based
[12] = system: SH-SY5Y; experiment: Anti-ferroptotic activity against RSL3 induced human SH-SY5Y cells inhibition of RSL3 induced in LPO accumulation at 1.5 uM measured after 16 hrs by DCFH-DA based confocal laser scanning microscopic (CLSM) imaging analysis; assay type: functional, cell-based
[13] = Toxicity in Balb/c mouse assessed as histopathological changes in heart at 20 mg/kg, iv (tail vein) measured for 24 hrs by H and E staining based analysis; assay type: organism-based; details: in vivo
[14] = system: HT-1080; experiment: Prevention of RSL3-induced ferroptosis morphological changes in human HT-1080 cells assessed as shrinkage, swelling, and membrane rupture measured up to 48 hrs; assay type: functional, cell-based
[15] = Antioxidant activity assessed as DPPH radical scavenging activity measured after 30 mins in dark by (DPPH) bleaching assay; assay type: functional
[16] = system: Mus musculus; experiment: Protection against middle cerebral artery occlusion (MCAO)-induced Balb/c mouse assessed as reduction in PTGS2 mRNA level in lesioned hemisphere at 20 mg/kg, iv (tail vein) measured for 24 hrs by qRT-PCR analysis; assay type: functional, organism-based
[17] = system: Mus musculus; experiment: Protection against middle cerebral artery occlusion (MCAO)-induced Balb/c mouse assessed as reduction in MDA level in lesioned hemisphere at 20 mg/kg, iv (tail vein) measured for 24 hrs by lipid peroxidation MDA assay; assay type: functional, organism-based
[18] = system: SH-SY5Y; experiment: Anti-ferroptotic activity against RSL3 induced human SH-SY5Y cells inhibition of RSL3 induced in MDA level at 1.5 uM measured after 16 hrs by lipid peroxidation MDA assay; assay type: functional, cell-based
[19] = system: SH-SY5Y; experiment: Prevention of STS-induced apoptosis in human SH-SY5Y cells assessed as cell viability at 5 uM measured after 48 hrs by MTT assay; assay type: functional, cell-based
[20] = system: SH-SY5Y; experiment: Anti-ferroptotic activity against RSL3 induced human SH-SY5Y cells inhibition of RSL3 induced in LPO accumulation at 1.5 uM measured after 16 hrs by BODIPY581/591 based flow cytometric analysis; assay type: functional, cell-based
[21] = Toxicity in Balb/c mouse assessed as histopathological changes in kidney at 20 mg/kg, iv (tail vein) measured for 24 hrs by H and E staining based analysis; assay type: organism-based; details: in vivo
[22] = system: Mus musculus; experiment: Protection against middle cerebral artery occlusion (MCAO)-induced Balb/c mouse assessed as reduction in infarct volume in brain at 20 mg/kg, iv (tail vein) measured for 24 hrs by TTC staining (reference value: 50.08%); assay type: functional; set-up: scale not given: the % may be the effect or the level left
[23] = system: SH-SY5Y; experiment: Prevention of TSZ-induced necroptosis in human SH-SY5Y cells assessed as cell viability at 5 uM measured after 48 hrs by MTT assay; assay type: functional, cell-based
[24] = Cytotoxicity against human HUVEC at 30 uM measured after 48 hrs incubation by MTT assay; assay type: toxicity, cell-based; details: huve
[25] = Toxicity in Balb/c mouse assessed as histopathological changes in liver at 20 mg/kg, iv (tail vein) measured for 24 hrs by H and E staining based analysis; assay type: organism-based; details: in vivo
[26] = system: OS-RC-2; experiment: Anti-ferroptosis activity against RSL3-induced ferroptosis in human OS-RC-2 cells assessed as reversal of ferroptosis by measuring cell viability measured after 48 hrs by MTT assay; assay type: functional, cell-based
[27] = Toxicity in Balb/c mouse assessed as histopathological changes in spleen at 20 mg/kg, iv (tail vein) measured for 24 hrs by H and E staining based analysis; assay type: organism-based; details: in vivo
[28] = Free radical trapping antioxidant activity in di-tert-undecyl hyponitrite (DTUN) trigged STY-BODIPY-embedded egg phosphatidylcholine liposomes assessed as inhibition of phospholipid peroxidation by measuring inhibition rate constant of STY-BODIPY at 1 uM by fluorescence-enabled inhibited autoxidation method (FENIX); assay type: functional
[29] = Toxicity in Balb/c mouse assessed as histopathological changes in lung at 20 mg/kg, iv (tail vein) measured for 24 hrs by H and E staining based analysis; assay type: organism-based; details: in vivo
[30] = system: L02; experiment: Cytotoxicity against human LO2 cells at 30 uM measured after 48 hrs incubation by MTT assay; assay type: toxicity, cell-based; details: l02, 48 h

SMILES: CC(=O)N(O)CCCCCNC(=O)CCC(=O)N(O)CCCCCNC(=O)CCC(=O)N(O)CCCCCN
- Activity [1]: Active
- Activity [2]: Active

SMILES: Oc1ccccc1-c1cccn2c(Cc3ccccc3)c(-c3ccccc3)nc12
- IC50 [3]: > 30000 nM

SMILES: COc1ccc(Nc2c(-c3cc(Cl)cc(Cl)c3)nc3ccc(N4CCN(C)CC4)cn23)cc1Cl
- IC50 [3]: 84 nM

SMILES: COc1ccc(Nc2c(-c3csc4ccccc34)nc3ccccn23)cc1Cl
- IC50 [3]: 195 nM

SMILES: Clc1cc(Cl)cc(-c2nc3ccc4ccccc4n3c2NC2CCCCC2)c1
- IC50 [3]: 920 nM

SMILES: COc1ccc(Nc2c(-c3c(Cl)cc(Cl)cc3Cl)nc3ccc4ccccc4n23)cc1Cl
- remaining at 12 h [4]: 32.2%
- half-life [5]: < 0.08 h
- half-life [6]: < 0.08 h
- remaining at 12 h [7]: 47.9%
- half-life [8]: < 0.08 h
- IC50 [3]: 22 nM
- remaining at 12 h [9]: 42.3%

SMILES: Oc1ccccc1-c1cn2ccccc2n1
- IC50 [3]: 9880 nM

SMILES: COc1ccc(Nc2c(C3CCCCC3)nc3ccc(F)cn23)cc1Cl
- IC50 [3]: 80 nM

SMILES: Clc1cccc(CNc2c(-c3cccc(Cl)c3)nc3ccc4ccccc4n23)c1
- IC50 [3]: 287 nM

SMILES: COc1ccc(-c2nc3ccccn3c2NC(C)(C)C)cc1
- IC50 [3]: > 30000 nM

SMILES: CCOC(=O)CNc1c(-c2ccccc2)nc2ccccn12
- IC50 [3]: 2930 nM

SMILES: Oc1ccccc1-c1nc2ccccn2c1Cc1ccccc1
- IC50 [3]: 5210 nM

SMILES: Clc1cccc(CNc2c(-c3cccc(Cl)c3)nc3ccccn23)c1
- IC50 [3]: 181 nM

SMILES: Clc1cccc(-c2nc3ccccn3c2NC23C[C@H]4C[C@@H](C2)C[C@@H](C3)C4)c1
- IC50 [3]: > 30000 nM

SMILES: Cc1cn2cccc(-c3ccccc3O)c2n1
- IC50 [3]: > 30000 nM

SMILES: CCOC(=O)c1ccc(NC2CCCCC2)c(N)c1
- remaining at 12 h [4]: 7.1%
- half-life [5]: 2.1 h
- half-life [6]: > 12 h
- Activity [10]: Active
- remaining at 12 h [7]: 94.1%
- half-life [8]: 0.67 h
- IC50 [3]: 20 nM
- remaining at 12 h [9]: 0%

SMILES: COc1ccc(Nc2c(C3CCCCC3)nc3ccccn23)cc1Cl
- remaining at 12 h [4]: 91.1%
- Activity [11]: Active
- Activity [12]: Active
- Activity [13]: Non-toxic
- Activity [14]: Active
- Activity [15]: Dose-dependent-effect
- Activity [16]: Active
- Activity [17]: Active
- Activity [18]: Active
- half-life [5]: > 12 h
- Activity [19]: inactive
- Activity [20]: Active
- half-life [6]: > 12 h
- Activity [10]: Active
- Activity [21]: Non-toxic
- remaining at 12 h [7]: 100%
- Activity [22]: 25.28%
- half-life [8]: > 12 h
- Activity [23]: inactive
- Activity [24]: Non-toxic
- Activity [25]: Non-toxic
- Activity [1]: inactive
- Activity [26]: Active
- Activity [27]: Non-toxic
- Ki [28]: 2 10^4/M/s
- Activity [2]: inactive
- IC50 [3]: 97 nM
- remaining at 12 h [9]: 100%
- Activity [29]: Non-toxic
- Activity [30]: Non-toxic

SMILES: COc1ccc(-c2nc3ccccn3c2NC23C[C@H]4C[C@@H](C2)C[C@@H](C3)C4)cc1
- IC50 [3]: 1870 nM

SMILES: FC(F)(F)c1ccccc1-c1nc2ccccn2c1NCc1ccco1
- IC50 [3]: 412 nM

SMILES: c1ccn2c(NC34C[C@H]5C[C@@H](C3)C[C@@H](C4)C5)c(-c3cscn3)nc2c1
- IC50 [3]: > 30000 nM

SMILES: FC(F)(F)c1ccccc1-c1nc2ccc3ccccc3n2c1NC1CCCCC1
- IC50 [3]: 104 nM

SMILES: CCOC(=O)CNc1c(-c2ccc(OC)cc2)nc2ccccn12
- IC50 [3]: 3940 nM

SMILES: COc1ccc(-c2nc3ccccn3c2NC2CCCCC2)cc1
- IC50 [3]: > 10000 nM

SMILES: Cc1ccccc1-c1cn2ccccc2n1
- IC50 [3]: > 100000 nM

SMILES: Nc1ccccc1-c1cn2ccccc2n1
- IC50 [3]: > 10000 nM

SMILES: c1ccc2c(c1)ccc1nc(-c3ccsc3)c(NC3CCCCC3)n12
- IC50 [3]: 426 nM

SMILES: Clc1cc(Cl)cc(CNc2c(-c3cc(Cl)cc(Cl)c3)nc3ccccn23)c1
- IC50 [3]: 1930 nM

SMILES: COc1ccc(Nc2c(-c3ccoc3)nc3ccccn23)cc1Cl
- remaining at 12 h [4]: 95.8%
- Activity [11]: Active
- Activity [12]: Active
- Activity [14]: Active
- Activity [15]: Dose-dependent-effect
- Activity [18]: Active
- half-life [5]: > 12 h
- Activity [19]: inactive
- Activity [20]: Active
- half-life [6]: > 12 h
- Activity [10]: Active
- remaining at 12 h [7]: 100%
- half-life [8]: > 12 h
- Activity [23]: inactive
- Activity [24]: Non-toxic
- Activity [1]: inactive
- Activity [26]: Active
- Ki [28]: 1.6 10^4/M/s
- Activity [2]: inactive
- IC50 [3]: 99 nM
- remaining at 12 h [9]: 100%
- Activity [30]: Non-toxic

SMILES: Cc1ccc2nc(-c3cccc(Cl)c3)c(NC(C)(C)C)n2c1
- IC50 [3]: > 10000 nM

SMILES: c1coc(CNc2c(-c3cscn3)nc3ccccn23)c1
- IC50 [3]: 2640 nM

SMILES: COc1ccc(Nc2c(-c3cc(Cl)cc(Cl)c3)nc3cc(COCc4cccc(Cl)c4)ccn23)cc1Cl
- IC50 [3]: 802 nM

SMILES: Oc1ccc(-c2cn3ccccc3n2)c(O)c1
- IC50 [3]: 2380 nM

SMILES: c1ccn2c(NC34C[C@H]5C[C@@H](C3)C[C@@H](C4)C5)c(C3CCCCC3)nc2c1
- IC50 [3]: > 10000 nM

SMILES: Clc1cc(Cl)cc(CNc2c(-c3cscn3)nc3ccccn23)c1
- IC50 [3]: 2030 nM

SMILES: Clc1cc(Cl)cc(CNc2c(-c3ccoc3)nc3ccccn23)c1
- IC50 [3]: 1560 nM

SMILES: Cc1cn2cccc(-c3ccccc3N)c2n1
- IC50 [3]: > 100000 nM

SMILES: CC(C)(C)Nc1c(-c2ccoc2)nc2ccccn12
- IC50 [3]: > 10000 nM

SMILES: Cc1ccc2nc(-c3ccc(N4CCOCC4)cc3)c(NC3CCCCC3)n2c1
- IC50 [3]: > 10000 nM

SMILES: COc1ccc(Nc2c(-c3ccccc3Cl)nc3ccc4ccccc4n23)cc1Cl
- IC50 [3]: 65 nM

SMILES: Clc1cc(Cl)cc(-c2nc3ccccn3c2NC2CCCCC2)c1
- IC50 [3]: 625 nM

SMILES: Clc1cc(Cl)cc(CNc2c(-c3cc(Cl)cc(Cl)c3)nc3ccc4ccccc4n23)c1
- IC50 [3]: 766 nM

SMILES: COc1ccc(Nc2c(-c3ccsc3)nc3ccccn23)cc1Cl
- IC50 [3]: 476 nM
